Laboratory results taken from patent US6552012B2 (priority 2000, dated 2003).
Counter-ions that a name gives are not always drawn. Like-named read-outs stand apart in the source and are kept apart here.

Columns and labels:
[1] = biological target: T1, nAChRs comprised of α4 and β2 subunits (Rattus norvegicus, UniProt P09483+P12390); test: In vitro inhibition of 3H-cytisine binding (Assay I)
T1 construct: Cerebral corticies from male Wistar rats (150-250 g) are homogenised; from tissue; host or cells: rat cerebral cortex membranes (male Wistar)
Procedure: In Vitro inhibition of ^3H-cytisine binding (Assay I)
The predominant subtype with high affinity for nicotine is comprised of α4 and β2 subunits. nAChRs of the latter type can selectively be labelled by the nicotine agonist ^3H-cytisine.
Preparations are performed at 0-4° C. unless otherwise indicated. Cerebral corticies from male Wistar rats (150-250 g) are homogenised for 20 seconds in 15 ml Tris, HCl (50 mM, pH 7.4) containing 120 mM NaCl, 5 mM KCl, 1 mM MgCl2 and 2.5 mM CaCl2 using an Ultra-Turrax homogeniser. The homogenate is centrifuged at 27,000×g for 10 minutes. The supernatant is discarded and the pellet is resuspended in fresh buffer and centrifuged a second time. The final pellet is resuspended in fresh buffer (35 ml per g of original tissue) and used for binding assays.
Aliquots of 500 μl homogenate are added to 25 μl of test solution and 25 μl of ^3H-cytisine (1 nM, final concentration), mixed and incubated for 90 minutes at 2° C. Non-specific binding is determined using (−)-nicotine (100 μM, final concentration). After incubation the samples are added 5 ml of ice-cold buffer and poured directly onto Whatman GF/C glass fibre filters under suction and immediately washed with 2×5 ml ice-cold buffer. The amount of radioactivity on the filters is determined by conventional liquid scintillation counting. Specific binding is total binding minus non-specific binding.

[2] = biological target: T2, nAChR formed by the α7 subunit isoform (Rattus norvegicus, UniProt Q05941); test: biochemical; type: binding; settings: read-out: Assay III IC50
T2 construct: Cerebral cortices from male Wistar rats (150-250 g) are homogenised; from tissue; host or cells: rat cerebral cortex membranes (male Wistar)

[3] = 3H-cytisine 1 nM, rat cerebral cortex homogenate, read-out: Assay I IC50

T2 sequence (Q05941 23-502): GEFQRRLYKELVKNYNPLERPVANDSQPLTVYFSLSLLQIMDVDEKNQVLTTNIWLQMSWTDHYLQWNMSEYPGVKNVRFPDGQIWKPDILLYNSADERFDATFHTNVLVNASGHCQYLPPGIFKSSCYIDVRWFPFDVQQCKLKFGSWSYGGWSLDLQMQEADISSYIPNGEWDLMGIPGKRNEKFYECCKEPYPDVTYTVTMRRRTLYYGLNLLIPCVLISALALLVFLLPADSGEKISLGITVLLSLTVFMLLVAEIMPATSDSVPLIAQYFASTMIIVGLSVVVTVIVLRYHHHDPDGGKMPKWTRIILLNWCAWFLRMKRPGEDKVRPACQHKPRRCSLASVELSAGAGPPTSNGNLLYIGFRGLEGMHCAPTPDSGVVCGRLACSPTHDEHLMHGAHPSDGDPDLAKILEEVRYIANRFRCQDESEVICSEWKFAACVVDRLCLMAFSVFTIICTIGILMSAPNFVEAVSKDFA
T1 sequence (P09483 31-630): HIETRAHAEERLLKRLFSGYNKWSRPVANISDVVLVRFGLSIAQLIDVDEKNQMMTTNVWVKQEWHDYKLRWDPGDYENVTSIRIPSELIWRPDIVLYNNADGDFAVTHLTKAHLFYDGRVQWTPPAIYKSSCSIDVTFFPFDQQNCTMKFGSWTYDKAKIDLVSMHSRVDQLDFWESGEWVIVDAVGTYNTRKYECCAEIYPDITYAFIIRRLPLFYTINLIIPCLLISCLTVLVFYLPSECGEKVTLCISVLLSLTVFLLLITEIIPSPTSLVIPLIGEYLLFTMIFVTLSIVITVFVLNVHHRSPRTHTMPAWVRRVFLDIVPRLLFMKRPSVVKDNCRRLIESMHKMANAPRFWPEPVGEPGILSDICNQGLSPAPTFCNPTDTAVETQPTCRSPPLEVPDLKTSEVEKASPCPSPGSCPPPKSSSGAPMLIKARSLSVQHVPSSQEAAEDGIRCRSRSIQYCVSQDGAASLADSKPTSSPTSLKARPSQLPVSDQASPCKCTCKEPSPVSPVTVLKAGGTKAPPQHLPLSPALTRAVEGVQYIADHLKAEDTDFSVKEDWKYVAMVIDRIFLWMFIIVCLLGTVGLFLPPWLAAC
T1 sequence (P12390 25-500): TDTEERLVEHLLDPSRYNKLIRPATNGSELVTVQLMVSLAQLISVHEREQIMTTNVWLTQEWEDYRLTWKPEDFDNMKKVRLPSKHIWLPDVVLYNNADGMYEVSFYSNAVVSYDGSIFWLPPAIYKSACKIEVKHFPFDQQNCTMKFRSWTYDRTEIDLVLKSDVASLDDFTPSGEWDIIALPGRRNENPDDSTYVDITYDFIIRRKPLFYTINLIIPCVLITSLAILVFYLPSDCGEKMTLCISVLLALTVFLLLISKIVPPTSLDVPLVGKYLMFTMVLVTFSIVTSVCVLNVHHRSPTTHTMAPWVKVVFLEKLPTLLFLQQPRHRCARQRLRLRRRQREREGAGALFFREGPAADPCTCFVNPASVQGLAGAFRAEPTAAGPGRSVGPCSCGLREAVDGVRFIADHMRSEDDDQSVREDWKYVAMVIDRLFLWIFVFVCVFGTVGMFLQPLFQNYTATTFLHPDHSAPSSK

SMILES | melting point | IC50 [1] | IC50 [2] | IC50 [1, 3]
CCOc1cc(N2CCC3CCC(C2)N3C)cnc1Cl.O=C(O)/C=C/C(=O)O (stereo not drawn) | 208.6 °C |  |  | 
CN1C2CCC1CN(c1ccc(Cl)nn1)CC2 (stereo not drawn) [3-[6-Chloro-(3-pyridazinyl)]-9-methyl-3,9-diazabicyclo-[4.2.1]-nonane Fumaric Acid Salt] |  | 1200 nM | 10000 nM | 
C=COc1cncc(N2CCC3CCC(C2)N3C)c1 (stereo not drawn) [3-(5Ethenyloxy-3-pyridyl)-9-methyl-3,9-diazabicyclo-[4.2.1]-nonane Fumaric Acid Salt] |  |  | 5800 nM | 3 nM
CN1C2CCC1CN(c1cncc(Cl)c1)CC2.O=C(O)/C=C/C(=O)O (stereo not drawn) | 181 to 182 °C |  |  | 
CN1C2CCCC1CN(c1cncc(Br)c1)CC2.O=C(O)/C=C/C(=O)O (stereo not drawn) | 162.5 to 164.5 °C |  |  | 
CC=COc1cncc(N2CCC3CCC(C2)N3)c1 (stereo not drawn) (as salt: fumaric acid salt) [3-[5-(Propyl-1-en-oxy)-3-pyridyl]-3,9-diazabicyclo-[4.2.1]-nonane bis Fumaric Acid Salt] | 144 to 146 °C |  |  | 
CCOc1cncc(N2C3CCNCC2CC3)c1 (stereo not drawn) [9-[5-Ethoxy-(3-pyridyl)]-3,9-diazabicyclo-[4.2.1]-nonane Fumaric Acid Salt] |  |  | 2700 nM | 3 nM
CC=COc1cncc(N2C3CCNCC2CC3)c1 (stereo not drawn) [9-[5-(Propyl-1-en-oxy)-(3-pyridyl)]-3,9-diazabicyclo-[4.2.1]-nonane Fumaric Acid Salt] |  |  | 2700 nM | 3 nM
COc1cncc(N2C3CCNCC2CC3)c1 (stereo not drawn) (as salt: fumaric acid salt) [9-[5-Methoxy)-(3-pyridyl)]-3,9-diazabicyclo-[4.2.1]-nonane Fumaric Acid Salt] | 183 to 185 °C |  |  | 
CCOc1cncc(N2CCC3CCC(C2)N3C)c1 (stereo not drawn) [3-[5-Ethoxy-(3-pyridyl)]-9-methyl-3,9-diazabicyclo-[4.2.1]-nonane bis-fumaric Acid Salt] |  |  | 8100 nM | 5 nM
CC=COc1cncc(N2CCC3CCC(C2)N3C)c1 (stereo not drawn) [3-[5-(Propyl-1-en-oxy)-3-pyridyl]-9-methyl-3,9-diazabicyclo-[4.2.1]-nonane Fumaric Acid Salt] |  | 5 nM | 10000 nM | 
CC=COc1cncc(N2C3CCNCC2CC3)c1 (stereo not drawn) (as salt: fumaric acid salt) [9-[5-(Propyl-1-en-oxy)-(3-pyridyl)]-3,9-diazabicyclo-[4.2.1]-nonane Fumaric Acid Salt] | 161.5 to 163 °C |  |  | 
CC=COc1cncc(N2CCC3CCC(C2)N3)c1 (stereo not drawn) [3-[5-(Propyl-1-en-oxy)-3-pyridyl]-3,9-diazabicyclo-[4.2.1]-nonane bis Fumaric Acid Salt] |  | 2 nM | 1800 nM | 
C=COc1cncc(N2CCC3CCC(C2)N3)c1.O=C(O)/C=C/C(=O)O (stereo not drawn) [3-(5-Ethenyloxy-3-pyridyl)-3,9-diazabicyclo-[4.2.1]-nonane Fumaric Acid Salt] | 145 to 147 °C |  | 1500 nM | 2 nM
Clc1ccc(N2CCC3CCC(C2)N3)nn1 (stereo not drawn) [3-[6-Chloro-(3-pyridazinyl)]-3,9-diazabicyclo-[4.2.1]-nonane Fumaric Acid Salt] |  | 20 nM | 1400 nM | 
CCOc1cncc(N2CCC3CCC(C2)N3)c1.O=C(O)/C=C/C(=O)O (stereo not drawn) [3-(5-Ethoxy-3-pyridyl)-3,9-diazabicyclo-[4.2.1]-nonane Fumaric Acid Salt] | 143 to 146 °C |  | 6200 nM | < 30 nM
COc1cncc(N2C3CCNCC2CC3)c1 (stereo not drawn) [9-[5-Methoxy)-(3-pyridyl)]-3,9-diazabicyclo-[4.2.1]-nonane Fumaric Acid Salt] |  | 150 nM | 3000 nM | 
